Experimental data as given in patent US4194009A, “Aryloxyphenylpropylamines for obtaining a psychotropic effect” (Eli Lilly and Company, priority 1976, dated 1980).

tested on: norepinephrine uptake by synaptosomes from rat brain; assay: blockage of norepinephrine uptake by synaptosomes from rat brain; format: biochemical; details: Table 1, norepinephrine 0.48 μM
From the text: (§1) This blockade is shown both in vitro with radioactive labelled compounds to determine the amount of monoamine uptake by synaptosomes from rat brain, and in vivo by a variety of methods. Among the physiologically active monoamines whose uptake is blocked by the compounds of this invention are included serotonin, norepinephrine and dopamine (3,4-dihydroxyphenylethylamine). […] Tables 1 and 2 which follow set forth the results of some of the in vitro determinations of the blockage of monoamine uptake by the compounds of this invention. In the tables, column 1 gives the R substituent on the 3-phenylpropylamine and columns 2-4, the concentration in micrograms per ml. that blocks the uptake of a particular amine by 50 percent for the amines--norephinephrine, serotonin, and dopamine. At the head of each column is given the concentration of the particular monoamine used in the experiment.

Row | SMILES | Concentration in mcg./ml. that blocks 50% of amine uptake, Norepinephrine
1 | Cc1cc(F)ccc1OC(CCN(C)C)c1ccccc1 (centres unmarked) [4-fluoro-o-tolyl, N,N-dimethyl 3-(p-fluoro-o-tolyloxy)-3-phenylpropylamine] | 2.5 µg/mL
2 | CN(C)CCC(Oc1ccc(F)cc1F)c1ccccc1 (centres unmarked) [2,4-difluorophenyl, N,N-dimethyl 3-(2',4'-difluorophenoxy)-3-phenylpropylamine] | .2 µg/mL
3 | CC(C)c1ccccc1OC(CCN(C)C)c1ccccc1 (centres unmarked) [o-isopropylphenyl] | 1.5 µg/mL

tested on: mice; assay: reserpine hypothermia reversal test; format: in vivo; details: Mus musculus, ip, 1 h, Table 5; mice; 3 mg./kg. intraperitoneally; read-out: Percent Antagonism Reserpine Post-60 min.
Description: (§2) The apomorphine hypothermia antagonism test is carried out as follows: mice are injected with a dose of apomorphine known to reduce body temperature approximately 4° C. The compound under test is injected 1/2 hour before the injection of the apomorphine and the temperatures measured 1/2 hour after injection. The degree of antagonism is expressed as a percent reduction (as compared with controls) of the temperature decrease produced by the injection of the apomorphine. The reserpine hypothermia reversal test is carried out as follows: groups of mice are injected with reserpine and 16.5 hours later are injected intraperitoneally with graded doses of the drug, a different dose level being given to each group of mice. Temperatures are measured at 1 hour after injection of the drug under test and again the effectiveness of the drug is expressed as a percentage decrease in the hypothermia induced by the injection of reserpine as compared with the control group. In the tables which follow, Table 4 gives the results in the apomorphine antagonism and reserpine reversal hypothermia tests for the secondary amines of this invention. In the table, the first column gives the substituent attached to the oxygen atom at the 3 position of the propylamine chain; columns 2 to 4 the percent antagonism against apomorphine hypothermia at dose levels of 0.3, 1 and 3 mg./kg. and columns 5-7 the percent reversal of reserpine hypothermia at the same dose levels.

Row | SMILES | inhibition in vivo at 3 mg/kg
4 | COc1ccc(OC(CCN(C)C)c2ccccc2)cc1 (centres unmarked) [p-anisyl] | 67%

same assay, conditions: Table 4; mice; 0.3 mg./kg. intraperitoneally

Row | SMILES | Percent Antagonism Reserpine Post-60 min.
5 | CNCCC(Oc1cccc(OC)c1)c1ccccc1 (centres unmarked) [m-anisyl, N-methyl 3-phenyl-3-(m-methoxyphenoxy)propylamine] | 8%

same assay, conditions: Table 4; mice; 1 mg./kg. intraperitoneally

Row | SMILES | Percent Antagonism Reserpine Post-60 min.
6 | CNCCC(Oc1cccc(OC)c1)c1ccccc1 (centres unmarked) [m-anisyl, N-methyl 3-phenyl-3-(m-methoxyphenoxy)propylamine] | 21%

same assay, conditions: Table 4; mice; 3 mg./kg. intraperitoneally

Row | SMILES | Percent Antagonism Reserpine Post-60 min.
7 | CNCCC(Oc1cccc(OC)c1)c1ccccc1 (centres unmarked) [m-anisyl, N-methyl 3-phenyl-3-(m-methoxyphenoxy)propylamine] | 21%

same assay, conditions: Table 5; mice; 1 mg./kg. intraperitoneally

Row | SMILES | Percent Antagonism Reserpine Post-60 min.
8 | CNCCC(Oc1cccc(OC)c1)c1ccccc1 (centres unmarked) [m-anisyl, N-methyl 3-phenyl-3-(m-methoxyphenoxy)propylamine] | -1%

same assay, conditions: Table 5; mice; 3 mg./kg. intraperitoneally

Row | SMILES | Percent Antagonism Reserpine Post-60 min.
9 | CNCCC(Oc1cccc(OC)c1)c1ccccc1 (centres unmarked) [m-anisyl, N-methyl 3-phenyl-3-(m-methoxyphenoxy)propylamine] | 6%
10 | CN(C)CCC(Oc1ccccc1Br)c1ccccc1 (centres unmarked) [o-bromophenyl, N,N-dimethyl 3-(o-bromophenoxy)-3-phenylpropylamine] | 18%

same assay, conditions: Table 5; mice; 10 mg./kg. intraperitoneally

Row | SMILES | Percent Antagonism Reserpine Post-60 min.
11 | CNCCC(Oc1cccc(OC)c1)c1ccccc1 (centres unmarked) [m-anisyl, N-methyl 3-phenyl-3-(m-methoxyphenoxy)propylamine] | 5%
12 | CN(C)CCC(Oc1ccccc1Br)c1ccccc1 (centres unmarked) [o-bromophenyl, N,N-dimethyl 3-(o-bromophenoxy)-3-phenylpropylamine] | 30%

same assay, conditions: in words

Row | SMILES | reversal of reserpine hypothermia
13 | CN(C)CCCN1c2ccccc2CCc2ccccc21 [imipramine, reference compound] | active
14 | CNCCC=C1c2ccccc2CCc2ccccc21 [nortriptyline, reference compound] | active

tested on: dopamine uptake by synaptosomes from rat brain; assay: blockage of dopamine uptake by synaptosomes from rat brain; format: biochemical; details: Table 1, dopamine 0.2 μM
From the text: as §1

Row | SMILES | Concentration in mcg./ml. that blocks 50% of amine uptake, Dopamine
15 | CN(C)CCC(Oc1ccccc1Br)c1ccccc1 (centres unmarked) [o-bromophenyl, N,N-dimethyl 3-(o-bromophenoxy)-3-phenylpropylamine] | 5 µg/mL
16 | Cc1cc(F)ccc1OC(CCN(C)C)c1ccccc1 (centres unmarked) [4-fluoro-o-tolyl, N,N-dimethyl 3-(p-fluoro-o-tolyloxy)-3-phenylpropylamine] | 40 µg/mL
17 | CN(C)CCC(Oc1ccc(F)cc1F)c1ccccc1 (centres unmarked) [2,4-difluorophenyl, N,N-dimethyl 3-(2',4'-difluorophenoxy)-3-phenylpropylamine] | 10 µg/mL
18 | CC(C)c1ccccc1OC(CCN(C)C)c1ccccc1 (centres unmarked) [o-isopropylphenyl] | > 100 µg/mL

tested on: mice; assay: apomorphine hypothermia antagonism test; format: in vivo; details: Mus musculus, Table 4; mice; 0.3 mg./kg.; read-out: Percent Antagonism Apomorphine Pre-30 min.
Description: as §2

Row | SMILES | inhibition in vivo at 0.3 mg/kg
19 | CN(C)CCC(Oc1ccc(F)cc1F)c1ccccc1 (centres unmarked) [2,4-difluorophenyl, N,N-dimethyl 3-(2',4'-difluorophenoxy)-3-phenylpropylamine] | 20%

same assay, conditions: Mus musculus, Table 4; mice; 1 mg./kg.; read-out: Percent Antagonism Apomorphine Pre-30 min.

Row | SMILES | inhibition in vivo at 1 mg/kg
20 | CN(C)CCC(Oc1ccc(F)cc1F)c1ccccc1 (centres unmarked) [2,4-difluorophenyl, N,N-dimethyl 3-(2',4'-difluorophenoxy)-3-phenylpropylamine] | 53%

same assay, conditions: Mus musculus, Table 4; mice; 3 mg./kg.; read-out: Percent Antagonism Apomorphine Pre-30 min.

Row | SMILES | inhibition in vivo at 3 mg/kg
21 | CN(C)CCC(Oc1ccc(F)cc1F)c1ccccc1 (centres unmarked) [2,4-difluorophenyl, N,N-dimethyl 3-(2',4'-difluorophenoxy)-3-phenylpropylamine] | 64%

same assay, conditions: Mus musculus, Table 5; mice; 1 mg./kg.; read-out: Percent Antagonism Apomorphine Pre-30 min.

Row | SMILES | inhibition in vivo at 1 mg/kg
22 | CN(C)CCC(Oc1ccc(F)cc1F)c1ccccc1 (centres unmarked) [2,4-difluorophenyl, N,N-dimethyl 3-(2',4'-difluorophenoxy)-3-phenylpropylamine] | 26%
23 | CC(C)c1ccccc1OC(CCN(C)C)c1ccccc1 (centres unmarked) [o-isopropylphenyl] | 17%

same assay, conditions: Mus musculus, Table 5; mice; 3 mg./kg.; read-out: Percent Antagonism Apomorphine Pre-30 min.

Row | SMILES | inhibition in vivo at 3 mg/kg
24 | COc1ccc(OC(CCN(C)C)c2ccccc2)cc1 (centres unmarked) [p-anisyl] | 25%
25 | C=CCc1ccccc1OC(CCN(C)C)c1ccccc1 (centres unmarked) [o-allylphenyl, N,N-dimethyl 3-phenyl-3-(o-allylphenoxy)propylamine] | 11%
26 | CN(C)CCC(Oc1ccc(F)cc1F)c1ccccc1 (centres unmarked) [2,4-difluorophenyl, N,N-dimethyl 3-(2',4'-difluorophenoxy)-3-phenylpropylamine] | 55%
27 | CC(C)c1ccccc1OC(CCN(C)C)c1ccccc1 (centres unmarked) [o-isopropylphenyl] | 39%

same assay, conditions: Mus musculus, Table 5; mice; 10 mg./kg.; read-out: Percent Antagonism Apomorphine Pre-30 min.

Row | SMILES | inhibition in vivo at 10 mg/kg
28 | CN(C)CCC(Oc1ccccc1F)c1ccccc1 (centres unmarked) [o-fluorophenyl] | 3%
29 | C=CCc1ccccc1OC(CCN(C)C)c1ccccc1 (centres unmarked) [o-allylphenyl, N,N-dimethyl 3-phenyl-3-(o-allylphenoxy)propylamine] | 67%
30 | CN(C)CCC(Oc1ccc(F)cc1F)c1ccccc1 (centres unmarked) [2,4-difluorophenyl, N,N-dimethyl 3-(2',4'-difluorophenoxy)-3-phenylpropylamine] | 98%
31 | CC(C)c1ccccc1OC(CCN(C)C)c1ccccc1 (centres unmarked) [o-isopropylphenyl] | 65%

same assay, conditions: Mus musculus, Table 5; mice; .3 mg./kg.; read-out: Percent Antagonism Apomorphine Pre-30 min.

Row | SMILES | inhibition in vivo at 0.3 mg/kg
32 | CC(C)c1ccccc1OC(CCN(C)C)c1ccccc1 (centres unmarked) [o-isopropylphenyl] | 3%

same assay, conditions: Table 4; mice; 0.3 mg./kg.

Row | SMILES | Percent Antagonism Apomorphine Pre-30 min.
33 | CNCCC(Oc1cccc(OC)c1)c1ccccc1 (centres unmarked) [m-anisyl, N-methyl 3-phenyl-3-(m-methoxyphenoxy)propylamine] | 15%

same assay, conditions: Table 4; mice; 1 mg./kg.

Row | SMILES | Percent Antagonism Apomorphine Pre-30 min.
34 | CNCCC(Oc1cccc(OC)c1)c1ccccc1 (centres unmarked) [m-anisyl, N-methyl 3-phenyl-3-(m-methoxyphenoxy)propylamine] | 15%

same assay, conditions: Table 4; mice; 3 mg./kg.

Row | SMILES | Percent Antagonism Apomorphine Pre-30 min.
35 | CNCCC(Oc1cccc(OC)c1)c1ccccc1 (centres unmarked) [m-anisyl, N-methyl 3-phenyl-3-(m-methoxyphenoxy)propylamine] | 71%

same assay, conditions: Table 5; mice; 1 mg./kg.

Row | SMILES | Percent Antagonism Apomorphine Pre-30 min.
36 | CNCCC(Oc1cccc(OC)c1)c1ccccc1 (centres unmarked) [m-anisyl, N-methyl 3-phenyl-3-(m-methoxyphenoxy)propylamine] | -12%
37 | CN(C)CCC(Oc1ccccc1Br)c1ccccc1 (centres unmarked) [o-bromophenyl, N,N-dimethyl 3-(o-bromophenoxy)-3-phenylpropylamine] | 19%

same assay, conditions: Table 5; mice; 3 mg./kg.

Row | SMILES | Percent Antagonism Apomorphine Pre-30 min.
38 | CNCCC(Oc1cccc(OC)c1)c1ccccc1 (centres unmarked) [m-anisyl, N-methyl 3-phenyl-3-(m-methoxyphenoxy)propylamine] | -7%
39 | CN(C)CCC(Oc1ccccc1Br)c1ccccc1 (centres unmarked) [o-bromophenyl, N,N-dimethyl 3-(o-bromophenoxy)-3-phenylpropylamine] | 40%

same assay, conditions: Table 5; mice; 10 mg./kg.

Row | SMILES | Percent Antagonism Apomorphine Pre-30 min.
40 | CNCCC(Oc1cccc(OC)c1)c1ccccc1 (centres unmarked) [m-anisyl, N-methyl 3-phenyl-3-(m-methoxyphenoxy)propylamine] | -5%
41 | CN(C)CCC(Oc1ccccc1Br)c1ccccc1 (centres unmarked) [o-bromophenyl, N,N-dimethyl 3-(o-bromophenoxy)-3-phenylpropylamine] | 47%

same assay, conditions: in words

Row | SMILES | antagonism of apomorphine hypothermia
42 | CN(C)CCCN1c2ccccc2CCc2ccccc21 [imipramine, reference compound] | active
43 | CNCCC=C1c2ccccc2CCc2ccccc21 [nortriptyline, reference compound] | active

tested on: serotonin uptake by synaptosomes from rat brain; assay: blockage of serotonin uptake by synaptosomes from rat brain; format: biochemical; details: Table 1, serotonin 0.1 μM
From the text: In the tables, column 1 gives the R substituent on the 3-phenylpropylamine and columns 2-4, the concentration in micrograms per ml. that blocks the uptake of a particular amine by 50 percent for the amines--norephinephrine, serotonin, and dopamine. At the head of each column is given the concentration of the particular monoamine used in the experiment.

Row | SMILES | Concentration in mcg./ml. that blocks 50% of amine uptake, Serotonin
44 | CN(C)CCC(Oc1ccccc1Br)c1ccccc1 (centres unmarked) [o-bromophenyl, N,N-dimethyl 3-(o-bromophenoxy)-3-phenylpropylamine] | .1 µg/mL
45 | Cc1cc(F)ccc1OC(CCN(C)C)c1ccccc1 (centres unmarked) [4-fluoro-o-tolyl, N,N-dimethyl 3-(p-fluoro-o-tolyloxy)-3-phenylpropylamine] | .6 µg/mL
46 | CN(C)CCC(Oc1ccc(F)cc1F)c1ccccc1 (centres unmarked) [2,4-difluorophenyl, N,N-dimethyl 3-(2',4'-difluorophenoxy)-3-phenylpropylamine] | .3 µg/mL
47 | CC(C)c1ccccc1OC(CCN(C)C)c1ccccc1 (centres unmarked) [o-isopropylphenyl] | > 100 µg/mL
